How the values were obtained:
[1] = Anionic emulsifier: emulsion stability testing of EW concentrate (modified ASTM E1116-98)
Description: Turbidity changes are noted and recorded.
A Mohr pipette is used to feed EW concentrate to each cylinder. Cylinders are stoppered and inverted ten times, then allowed to stand for 0.5, 1, and 24 h while recording stability at each time as type and % separation.
Spontaneity is recorded according to the following criteria: (1) poor: very thin emulsion cloud with major separation of oil droplets; (2) fair: thin emulsion cloud with minor separation of oil droplets; (3) good: thin emulsion cloud reaches the bottom of the cylinder without separation of any type; (4) excellent: thick emulsion cloud reaches the bottom of the cylinder without separation of any type.

[2] = Water-soluble herbicide formulation testing (standard dilution test, emulsion stability); type: physicochemical; parameters: key to Emulsion stability, mL separation, 24 h: Tr = trace; details: 342 ppm water;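 further: diluted in a 50 mL Nessler cylinder held at 30 °C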
Description: Surfactant candidates for water soluble herbicide applications are examined as a replacement for the anionic, nonionic, or anionic/nonionic blend portion and compared to a known industry adjuvant standard for use in paraquat, a water soluble herbicide concentrate formulation. A standard dilution test is conducted whereby the concentrates are diluted in water to determine if solubility is complete.
The cylinder is stoppered and inverted ten times. Solubility is recorded as complete or incomplete. Cylinders are allowed to stand and the amount (in mL) and type of separation are recorded after 30 min., 1 h, 2 h, and 24 h. Results of the solubility testing appear in Table 3 below.
An eight to ten mole alkyl phenol ethoxylate surfactant (0.7 g) is added and vigorously mixed for 30 s. Test sample (0.7 g) is added and mixing resumes for 30 s.
Test sample (0.7 g) is added and vigorously mixed for 30 s. Sodium linear alkylbenzene sulfonate (“NaLAS,” 0.7 g) is added and mixing resumes for 30 s.

[3] = Surfactant phase behavior study (cross-polarized microscopy); type: physicochemical; details: room temperature (20-22° C.)
Description: Phase behavior is observed using an Olympus BH-2 cross-polarized microscope at 100-400× and room temperature (20° C. to 22° C.). The inventive monounsaturated sulfates and ethoxylate sulfates are compared with their saturated analogs, and in some cases, commercial surfactants.
Samples are prepared by diluting the most concentrated product gradually with deionized water. When the surfactant concentration approaches a phase transition, the concentration is varied at 2-4% intervals to estimate the phase boundary. The actives level reported in Table 15 for each phase boundary is within ±5% of the true boundary.
Samples are loaded between a microscope slide and cover glass and are allowed to equilibrate before observation. Microscopic texture is analyzed and used to determine the phase. For some samples, an AR 2000 rheometer (TA Instruments) is used to measure viscosity at 25° C. to further verify phase behavior.

[4] = Adjuvant (anionic/nonionic) test sample

% Separation, 1 h ([1]; 34 ppm water) [%]	% Separation, 24 h ([1]; 34 ppm water) [%]	% Separation, 1 h ([1]; 1000 ppm water) [%]	% Separation, 24 h ([1]; 1000 ppm water) [%]	Estimated Phase Region: Hexagonal [3]	Estimated Phase Region: Isotropic Clear [3]	Estimated Phase Region: Lamellar [3]	Estimated Phase Region: Solid/gum/paste [3]	Estimated Phase Region: Unknown [3]	Compound	Emulsion stability, mL separation, 1 h [2, 4] [mL]	Emulsion stability, mL separation, 24 h [2, 4] [mL]	Emulsion stability, mL separation, 1 h ([2]; Anionic test sample) [mL]	Emulsion stability, mL separation, 24 h ([2]; Anionic test sample) [mL]	Emulsion stability, mL separation, 1 h ([2]; Nonionic test sample) [mL]	Emulsion stability, mL separation, 24 h ([2]; Nonionic test sample)	Estimated Phase Region: Cubic [3]
3.8	4.3	2.8	3	–	–	–	–	–	1 Mole Ethoxylated C10 Alcohol, Ammonium Sulfate [A10-5]	–	–	–	–	–	–	–
4	4.1	3	3.5	–	–	–	–	–	1 Mole Ethoxylated C12 Alcohol, Ammonium Sulfate [A12-5]	–	–	–	–	–	–	–
3.5	3.9	3.5	3.5	–	–	–	–	–	3 Mole Ethoxylated C10 Alcohol, Ammonium Sulfate [A10-8]	–	–	–	–	–	–	–
3	4	3.7	3.9	–	–	–	–	–	3 Mole Ethoxylated C12 Alcohol, Ammonium Sulfate [A12-8]	–	–	–	–	–	–	–
3.9	5	2.5	3.1	–	–	–	–	–	5 Mole Ethoxylated C10 Alcohol, Ammonium Sulfate [A10-11]	–	–	–	–	–	–	–
3.6	3.8	2.1	3	–	–	–	–	–	5 Mole Ethoxylated C12 Alcohol, Ammonium Sulfate [A12-11]	–	–	–	–	–	–	–
3.5	4	3.5	4.1	–	–	–	–	–	7 Mole Ethoxylated C10 Alcohol, Ammonium Sulfate [A10-14]	–	–	–	–	–	–	–
3.9	4.1	2.8	3.5	–	–	–	–	–	7 Mole Ethoxylated C12 Alcohol, Ammonium Sulfate [A12-14]	–	–	–	–	–	–	–
1.5	2.2	1.5	2	–	–	–	–	–	15 Mole Ethoxylated C10 Alcohol, Ammonium Sulfate [A10-17]	–	–	–	–	–	–	–
4	3.8	3.5	4.2	–	–	–	–	–	15 Mole Ethoxylated C12 Alcohol, Ammonium Sulfate [A12-17]	–	–	–	–	–	–	–
–	–	–	–	42-64 % actives	–	64-80 % actives	80-100 % actives	0-42 % actives	CCCCCCCCCCOS(=O)(=O)O.N [sat. analog of A10-2, reference compound]	–	–	–	–	–	–	–
–	–	–	–	41-59 % actives	0-41 % actives	–	59-100 % actives	–	CCCCCCCCCCOS(=O)(=O)[O-].[Na+] [sat. analog of A10-3, reference compound]	–	–	–	–	–	–	–
–	–	–	–	31-63 % actives	0-31 % actives	63-74 % actives	74-100 % actives	–	CCCCCCCCCCCCOS(=O)(=O)O.N [sat. analog of A12-2, reference compound]	–	–	–	–	–	–	–
–	–	–	–	–	0-31 % actives	–	31-100 % actives	–	CCCCCCCCCCCCOS(=O)(=O)[O-].[Na+] [sat. analog of A12-3, reference compound]	–	–	–	–	–	–	–
–	–	–	–	24-60 % actives	0-24 % actives	60-78 % actives	78-100 % actives	–	CCCCCCCCCCCCOCCOCCOCCOS(=O)(=O)[O-].[Na+] [sat. analog of A12-9, reference compound]	–	–	–	–	–	–	–
4	4.2	2.5	3.2	33-70 % actives	0-33 % actives	70-83 % actives	83-100 % actives	–	C12 Alcohol Ammonium Sulfate [A12-2]	–	–	–	–	–	–	–

Compound	% Separation, 1 h ([1]; 34 ppm water) [%]	% Separation, 24 h ([1]; 34 ppm water) [%]	% Separation, 1 h ([1]; 1000 ppm water) [%]	% Separation, 24 h ([1]; 1000 ppm water) [%]	Estimated Phase Region: Hexagonal [3]	Estimated Phase Region: Isotropic Clear [3]	Estimated Phase Region: Lamellar [3]	Estimated Phase Region: Solid/gum/paste [3]	Estimated Phase Region: Unknown [3]	Emulsion stability, mL separation, 1 h [2, 4] [mL]	Emulsion stability, mL separation, 24 h [2, 4] [mL]	Emulsion stability, mL separation, 1 h ([2]; Anionic test sample) [mL]	Emulsion stability, mL separation, 24 h ([2]; Anionic test sample) [mL]	Emulsion stability, mL separation, 1 h ([2]; Nonionic test sample) [mL]	Emulsion stability, mL separation, 24 h ([2]; Nonionic test sample)	Estimated Phase Region: Cubic [3]
1 Mole Ethoxylated C10 Alcohol, Sodium Sulfate [A10-6]	4	4.9	3	3.2	–	–	–	–	–	0	0	0	0	0	Tr	–
1 Mole Ethoxylated C12 Alcohol, Sodium Sulfate [A12-6]	4.3	5.2	2.7	3.7	–	–	–	–	–	0	0	0	0	0	0 mL	–
3 Mole Ethoxylated C10 Alcohol, Sodium Sulfate [A10-9]	4	3.6	3.5	3.9	–	–	–	–	–	0	0	0	0	0	0 mL	–
3 Mole Ethoxylated C12 Alcohol, Sodium Sulfate [A12-9]	3.3	4.2	2.1	3	31-60 % actives	0-31 % actives	68-87 % actives	87-100 % actives	–	0	0	0	0	0	0 mL	60-68 % actives
5 Mole Ethoxylated C10 Alcohol, Sodium Sulfate [A10-12]	3.6	4	3.4	4.3	–	–	–	–	–	0	0	0	0	0	0 mL	–
5 Mole Ethoxylated C12 Alcohol, Sodium Sulfate [A12-12]	4.1	4.5	3	3.8	–	–	–	–	–	0	0	0	0	0	0 mL	–
7 Mole Ethoxylated C10 Alcohol, Sodium Sulfate [A10-15]	3.5	3.9	3	4.1	–	–	–	–	–	0	0	0	0	0	0 mL	–
7 Mole Ethoxylated C12 Alcohol, Sodium Sulfate [A12-15]	3.5	3.9	3.5	4	–	–	–	–	–	0	0	0	0	0	0 mL	–
15 Mole Ethoxylated C10 Alcohol, Sodium Sulfate [A10-18]	2.5	2.8	4	4	–	–	–	–	–	0	0	0	0	0	0 mL	–
15 Mole Ethoxylated C12 Alcohol, Sodium Sulfate [A12-18]	3	4.3	2.5	3.9	–	–	–	–	–	0	0	0	0	0	0 mL	–

Source: patent US11760889B2, “Unsaturated fatty alcohol derivatives from natural oil metathesis” (priority 2012, dated 2023)
